{
  "source": "paper PMC5131364",
  "about": "“Pharmacologic modulation of RORγt translates to efficacy in preclinical and translational models of psoriasis and inflammatory arthritis” (Scientific Reports, 2016)",
  "key": {"[1]": {"system": "iNKT cells from human PBMCs", "assay": "Human NKT cell in vitro activation", "format": "cell-based", "conditions": "IL-1β/IL-23, 6 days, 1 μM"}, "RORα": {"molecular_target": "T1, RORα (Homo sapiens, UniProt P35398)", "T1 construct": "NP_599022, aa 305–556; expressed in transfected cells; host or cells: HEK293T", "T1 sequence (P35398 272-523)": "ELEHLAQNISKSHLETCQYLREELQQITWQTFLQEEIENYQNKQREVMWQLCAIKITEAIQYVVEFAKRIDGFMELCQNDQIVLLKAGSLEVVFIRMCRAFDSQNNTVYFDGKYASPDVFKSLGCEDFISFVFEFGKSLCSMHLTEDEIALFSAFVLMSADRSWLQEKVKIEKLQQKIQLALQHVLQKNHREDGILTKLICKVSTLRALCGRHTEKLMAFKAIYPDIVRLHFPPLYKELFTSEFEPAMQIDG", "assay": "1-hybrid reporter assay in HEK293T cells (GAL4-RORα)", "format": "cell-based", "conditions": "HEK-293T", "method": "The reporter assay was performed by transient co-transfection of HEK293T cells with pCMV-BD (Stratagene #211342) containing the GAL4 DNA-binding domain fused with full-length human RORγt (Genbank accession no. NP_001001523, aa 1–497), pFR-Luc reporter and pRL-CMV reporter (Promega #E2261) plus Carrier DNA (Clontech # 630440) using PEI solution (Sigma Aldrich cat# 40872-7) in a 96-well plate. […] Medium was removed and cells were lysed with Passive Lysis Buffer (Promega). Firefly luciferase buffer was then added and firefly luciferase luminescence was read on BMG LUMIstar OPTIMA luminescence plate reader. One second later, renilla luciferase buffer was then added and renilla luciferase luminescence was read to measure cell viability. For RORα and RORβ activity, similar assays were performed except cells were transfected with pCMV-BD-RORα (Genbank accession no. NP_599022, aa 305–556) or pCMV-BD-RORβ (Genbank accession no. NP_008845, aa 201–459)."}, "[2]": {"system": "naïve CD4+ T cells under Th17-polarizing conditions", "assay": "In vitro mouse Th17 differentiation", "format": "cell-based", "conditions": "for IC50: Mus musculus, CD4+ T", "excerpt": "(§1) The following antibodies (anti-mouse or anti-human) were purchased from BD Biosciences (San Diego, CA) or eBioscience (San Diego, CA): anti-CD3-FITC (mouse 17A2 and human SK7), anti-CD4-allophycocyanin (APC), anti-CD4-PerCp, anti-CD4-FITC, anti-CD4-PE (mouse GK1.5 and human SK3), anti-CD44-PerCp (mouse IM7), anti-γδ TCR-FITC, anti-γδ TCR-PE (mouse GL3 and human B1), anti-CD62L-FITC (mouse MEL-14 and human SK11), anti-CD45RO-APC (human UCHL1), anti-CCR6-PE (human 11A9), anti-CD45-PerCp (mouse 30-F11). Human or mouse anti-IFNγ (mouse XMG1.2 and human 4S.B3), anti-TNFα (mouse MP6-XT22 and human MAB11), anti-IL-17A (mouse eBio17B7 and human eBio64DEC17), anti-IL-22 (mouse 1H8PWSR and human 22URTI), and anti-Foxp3 (mouse FJK-16s and human 36A/E7), all PE or APC conjugated, were purchased from eBioscience (San Diego, CA). Human and mouse APC conjugated CD1d tetramers pre-loaded with alpha-GalCer and negative controls were obtained from ProImmune. For intracellular staining cells were stimulated for 4 hours at 37 °C with PMA and ionomycin (0.5 μg/ml each) in the presence of brefeldin A and monensin or with leukocyte activation cocktail (BD Bioscience, San Diego, CA). Cells were stained with fluorescence-labeled antibodies for surface marker, then fixed/permeabilized (eBioscience) and stained with antibodies for intracellular cytokines. For Foxp3 staining cells were fixed/permeabilized using transcription factor buffer set (eBioscience). The data were acquired on a FACS Calibur (BD Bioscience) and analyzed using FlowJo software (Tree Star, San Carlos, CA).\nNaïve CD4^+ T cells were isolated from splenocytes of C57BL/6N mice using a naïve CD4^+ T cell isolation kit II (Miltenyl Biotec, Auburn, CA), following the manufacturer’s instructions. Cells were resuspended in culture medium (RPMI-1640 medium supplemented with 10% fetal bovine serum, 50 IU/ml penicillin, 50 μg/ml streptomycin, 2 mM glutamine, and 55 μM β-mercaptoethanol), and were added to 96-well plates at 2 × 10^5 per well. […] Cells were incubated for 1 hour, after which Th17 cell differentiation medium was added with final concentrations of 1 μg/ml anti-CD3, 5 μg/mL anti-CD28 (BD Pharmingen, San Diego, CA), 10 μg/ml anti-IL-4, 10 μg/ml anti-IFNγ, 10 ng/mL IL-23, 10 ng/mL IL-6, and 10 ng/ml TGFβ (R&D Systems, Minneapolis, MN). Cells were cultured at 37 °C and 5% CO2 for 3 days. Supernatants were collected and the accumulated cytokines in culture were measured by ELISA kits (R&D Systems, Minneapolis, MN) following manufacturers’ instructions. Cells were harvested for staining and flow cytometry analysis."}, "PBMC from RA patients": {"system": "PBMC from RA patients", "assay": "IL-17A/IL-22 production from PBMC of rheumatoid arthritis patients", "format": "cell-based, human", "conditions": "anti-CD3/anti-CD28 plus IL-1β and IL-23, 3 days", "excerpt": "Frozen PBMCs of healthy and rheumatoid arthritis patients were obtained from SeraCare Life Sciences (Gaithersburg, MD). […] 3 days later, supernatants were collected and analyzed by MSD multi-spot assay or ELISA for IL-17A, IL-22 and IL-13 production."}, "[3]": {"system": "human CD4+ CD45RO+ CCR6+ T cells", "assay": "Human memory CCR6+ T cells in vitro activation", "format": "cell-based", "excerpt": "as §1\nHuman blood samples from healthy donors were provided by the Scripps Research Institute, La Jolla following Institutional Review Board approved protocol. Total CD4^+ T cells were isolated from the peripheral blood mononuclear cells (PBMCs) using a CD4^+ T cell Isolation Kit II (Miltenyl Biotec, Auburn, CA), following the manufacturer’s instructions. CCR6^+ cells were isolated from CD4^+ T cells using phycoerythrin (PE) conjugated anti-CCR6 antibody followed by anti-PE microbeads. Isolated CCR6^+ T cells were resuspended in culture medium and added to a 96-well plate which was pre-coated with 1 μg/ml anti-CD3 (BD Bioscience) at 1 × 10^5 cells per well. […] Cells were cultured at 37 °C and 5% CO2 for 6 days. Supernatants were assayed for accumulated cytokines using MSD multi-spot assay (Meso Scale Discovery, Rockville, MD) or R&D ELISA kit, and cells were used for intracellular staining."}, "[4]": {"system": "CD4+ T cells from draining lymph nodes restimulated with OVA", "assay": "In vivo mouse Th17 differentiation (OVA/CFA) and in vitro restimulation", "format": "cell-based", "conditions": "1 μM, OVA restimulation", "excerpt": "as §1, with “from ProImmune. […] Cells were” for “from ProImmune. For intracellular staining cells were stimulated for 4 hours at 37 °C with PMA and ionomycin (0.5 μg/ml each) in the presence of brefeldin A and monensin or with leukocyte activation cocktail (BD Bioscience, San Diego, CA). Cells were”, “intracellular cytokines. […] The data” for “intracellular cytokines. For Foxp3 staining cells were fixed/permeabilized using transcription factor buffer set (eBioscience). The data”, “Carlos, CA). […]” for “Carlos, CA).”"}},
  "note": "Like-named read-outs stand apart in the source and are kept apart here.",
  "data": [
    {"smiles": "COc1nc2ccc([C@@](O)(c3ccc(C)nc3C)c3cnnn3C)cc2c(Cl)c1Cc1ccc(C(F)(F)F)cc1", "note": "[JNJ-54271074]", "values": [
      {"measurement": "IL-17A production by iNKT cells from human PBMCs", "setting": "[1]", "value": "suppressed"},
      {"measurement": "IC50", "setting": "RORα", "value": 4000, "unit": "nM"},
      {"measurement": "IL-17A-producing cells", "setting": "[2]; 1 μM, flow cytometry", "value": "almost completely abolished"},
      {"measurement": "IC50", "setting": "[2]; Th17-polarizing condition, supernatant, read-out: IC50, IL-17A production", "value": 17, "unit": "nM"},
      {"measurement": "IC50", "setting": "[2]; flow cytometry, read-out: IC50, total IL-17A-producing cells", "value": 21, "unit": "nM"},
      {"measurement": "TNFα production", "setting": "[2]; Th17-polarizing condition, supernatant", "value": "did not inhibit"},
      {"measurement": "IC50", "setting": "PBMC from RA patients; Homo sapiens, PBMC, 72 h, read-out: IC50, IL-17A production from PBMC from RA subjects", "value": "5 ± 1.2", "unit": "nM"},
      {"measurement": "efficacy, inhibition of IL-17A production", "setting": "PBMC from RA patients; RA PBMC", "value": 88, "unit": "%"},
      {"measurement": "efficacy, inhibition of IL-22 production", "setting": "PBMC from RA patients; RA PBMC", "value": 44, "unit": "%"},
      {"measurement": "IFNγ production", "setting": "[3]; 1 μM", "value": "slightly increasing"},
      {"measurement": "IL-22, TNFα and GM-CSF production", "setting": "[3]; 1 μM", "value": "trend of decreasing"},
      {"measurement": "increase of IL-10 production over the control", "setting": "[3]; 1 μM", "value": 49, "unit": "%"},
      {"measurement": "number of IL-17A-producing cells (single- and double-positive)", "setting": "[3]; 1 μM, flow cytometry", "value": "significantly decreased"},
      {"measurement": "inhibition at 1 µM", "setting": "[3]; Homo sapiens, T-cell, vs DMSO control, non-polarizing activation, read-out: inhibition of IL-17A production", "value": 77, "unit": "%"},
      {"measurement": "IL-17A+ and IL-17A+ IL-22+ CD4+ T cells", "setting": "[4]", "value": "significantly suppressed"},
      {"measurement": "IL-22 single positive cells", "setting": "[4]", "value": "no effect"}
    ]}
  ]
}
